Target: T1, GPIIb/IIIa (Homo sapiens, UniProt P05106+P08514)
T1 construct: Purification of GPIIb/IIIa from HEL cells; endogenous in cells; host or cells: HEL cells (HEL 92.1.7, ATCC TIB180); endogenous complex solubilized with Triton X-100 and purified in house
Assay: Inhibitory activity against binding of GPIIb/IIIa and fibrinogen
Settings: Table 2; for inhibition at 10 µM / inhibition at 1 µM: read-out: GPIIb/IIIa Fibrinogen Binding Inhibitory Activity
Procedure: Test Example 1: Inhibitory activity against binding of GPIIb/IIIa and fibrinogen
(1) Cultivation of human erythroleukemia-derived cell line (hereinafter referred to as HEL cells)
HEL cells (HEl92.1.7; ATCC No. TIB180) were purchased from ATCC (Rockville, Md., U.S.A.). The medium was RPMI medium (GIBCO Laboratories, Grand Island, N..Y, U.S.A.) containing 40 mM N-2-hydroxyethylpiperazine-N'-2-ethanesulfonic acid (hereinafter referred to as HEPES) (pH 7.0), 0.2% NaHCO3, 100 μg/ml kanamycin and 10% FCS. The cells were cultured in the presence of 5% CO2 at 37° C., with the medium replaced with a fresh medium to obtain a 4- to 5-fold dilution at intervals of 3 to 4 days.
(2) Purification of GPIIb/IIIa from HEL cells
GPIIb/IIIa was purified by a modification of the method of L. A. Fitzgerald et al. [J. Biol. Chem., 262, 3936 (1987)] as follows: All purification was conducted at room temperature, unless otherwise stated. At 7 days of cultivation, cells were collected from the HEL cell culture broth (cell suspension) by centrifugation (1,000 ×g, 10 minutes, 4° C.). After washing with 20 mM Tris-HCl (pH 7.5) containing 1 mM EDTA and 150 mM NaCl, the cells were suspended in a solubilizing buffer (20 mM Tris-HCl, 150 mM NaCl, 1% Triton X-100, 1 mM MgCl2, 1 mM CaCl2, 0.1 mM (p-amidinophenyl)methanesulfonyl fluoride (hereinafter referred to as APMSF), 10 nM leupeptin, 0.02% NaN3, pH 7.4), followed by gentle stirring at 4° C. for 30 minutes, to solubilize the GPIIb/IIIa. The suspension was centrifuged (100,000 ×g, 1 hour) at 4° C., and the cell debris removed, to yield a cell extract. The cell extract was passed through a Heparin-Sepharose CL-6B column (Pharmacia LKB) and a DEAE-Toyopearl 650M column (Tosoh), both previously equilibrated with a column buffer (20 mM Tris-HCl, 150 mM NaCl, 0.1% Triton X-100, 1 mM MgCl2, 1 mM CaCl2, 0.1 mM APMSF, 1 nM leupeptin, 0.05% NaN3, pH 7.4). The effluent was applied to a ConA-Sepharose column (Pharmacia LKB), previously equilibrated with the same column buffer as above, to adsorb the GPIIb/IIIa, followed by elution with the same column buffer but containing 0.5M methyl α-D-mannopyranoside. The eluted fraction was concentrated at 4° C. using an ultrafiltration apparatus (Amicon Corporation the fraction's molecular weight of 10,000), after which it was subjected to gel filtration through a Sephacryl S-300 column (Pharmacia LKB), previously equilibrated with the same column buffer, to yield a purified standard sample.
(3) Biotinization of human fibrinogen
Conducted by the method of I. F. Charo [I. F. Charo et al., J. Biol. Chem., 266, 1415 (1991)].
Human fibrinogen (Kabi Vitrum AB) was dissolved in PBS to 5 mg/ml and then dialyzed at 4° C. against 0.1M carbonate buffer (pH 8.2) containing 0.1M NaCl. After dialysis, insoluble substances were removed by centrifugation (100,000 ×g, 30 minutes), and the dialyzate was diluted to 1 mg/ml with the same buffer. To this dilution, sulfo-N-hydroxysuccinimidebiotin (Pierce Chemical Co.) was added to a final concentration of 0.2 mg/ml, followed by gentle mixing at room temperature for 30 minutes, to biotinize the fibrinogen. After completion of the reaction, the mixture was dialyzed against 0.05M Tris-HCl buffer (pH 7.4) containing 0.1M NaCl and 0.05% NaN3.
(4) Determination of inhibitory activity against fibrinogen binding
Conducted by a modification of the method of I. F. Charo [I. F. Charo et al., J. Biol. Chem., 266, 1415 (1991)] as follows: The purified GPIIb/IIIa was diluted to 1 μg/ml with buffer A (20 mM Tris-HCl, 150 mM NaCl, 1 mM CaCl2, 0.02% NaN3, pH 7.4). A 100 μl aliquot of this dilution was dispensed to a 96-well microplate (Maxisorp, produced by Nunc), and the plate kept standing at 4° C., to adsorb the GPIIb/IIIa to the microplate. Next, 150 μl of buffer B (35 mg/ml BSA, 50 mM Tris-HCl, 100 mM NaCl, 2 mM CaCl2, 0.02% NaN3, pH 7.4) was added, followed by 2 hours of blocking at 30° C. […]

T1 sequence (P08514 32-887 limits assumed): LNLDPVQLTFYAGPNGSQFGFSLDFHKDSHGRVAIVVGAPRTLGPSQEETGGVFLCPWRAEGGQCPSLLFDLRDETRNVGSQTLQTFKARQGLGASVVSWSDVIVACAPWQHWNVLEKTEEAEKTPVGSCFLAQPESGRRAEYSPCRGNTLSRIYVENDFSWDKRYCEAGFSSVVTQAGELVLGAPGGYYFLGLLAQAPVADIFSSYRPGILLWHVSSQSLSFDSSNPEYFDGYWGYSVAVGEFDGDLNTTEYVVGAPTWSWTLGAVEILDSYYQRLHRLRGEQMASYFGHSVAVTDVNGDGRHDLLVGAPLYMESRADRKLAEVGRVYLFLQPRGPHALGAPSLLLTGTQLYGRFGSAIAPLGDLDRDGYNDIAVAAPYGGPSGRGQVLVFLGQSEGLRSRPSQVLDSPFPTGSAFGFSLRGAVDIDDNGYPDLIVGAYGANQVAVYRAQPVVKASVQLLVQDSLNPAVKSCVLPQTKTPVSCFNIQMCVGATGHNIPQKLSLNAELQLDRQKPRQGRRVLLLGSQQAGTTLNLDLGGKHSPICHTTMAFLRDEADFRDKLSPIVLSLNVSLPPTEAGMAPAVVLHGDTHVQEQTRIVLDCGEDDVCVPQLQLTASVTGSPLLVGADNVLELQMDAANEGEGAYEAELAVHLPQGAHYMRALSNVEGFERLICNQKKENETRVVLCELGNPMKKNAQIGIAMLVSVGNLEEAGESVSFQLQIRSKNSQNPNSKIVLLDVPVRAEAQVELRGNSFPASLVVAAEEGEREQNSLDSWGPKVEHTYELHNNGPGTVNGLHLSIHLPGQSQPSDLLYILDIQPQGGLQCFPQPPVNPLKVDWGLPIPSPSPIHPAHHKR
T1 sequence (P08514 891-1039 limits assumed): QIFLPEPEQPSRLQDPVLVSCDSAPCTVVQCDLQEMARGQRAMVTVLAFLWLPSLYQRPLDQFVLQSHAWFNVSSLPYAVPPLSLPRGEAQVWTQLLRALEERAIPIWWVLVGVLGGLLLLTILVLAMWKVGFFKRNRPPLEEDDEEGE
T1 sequence (P05106 27-788): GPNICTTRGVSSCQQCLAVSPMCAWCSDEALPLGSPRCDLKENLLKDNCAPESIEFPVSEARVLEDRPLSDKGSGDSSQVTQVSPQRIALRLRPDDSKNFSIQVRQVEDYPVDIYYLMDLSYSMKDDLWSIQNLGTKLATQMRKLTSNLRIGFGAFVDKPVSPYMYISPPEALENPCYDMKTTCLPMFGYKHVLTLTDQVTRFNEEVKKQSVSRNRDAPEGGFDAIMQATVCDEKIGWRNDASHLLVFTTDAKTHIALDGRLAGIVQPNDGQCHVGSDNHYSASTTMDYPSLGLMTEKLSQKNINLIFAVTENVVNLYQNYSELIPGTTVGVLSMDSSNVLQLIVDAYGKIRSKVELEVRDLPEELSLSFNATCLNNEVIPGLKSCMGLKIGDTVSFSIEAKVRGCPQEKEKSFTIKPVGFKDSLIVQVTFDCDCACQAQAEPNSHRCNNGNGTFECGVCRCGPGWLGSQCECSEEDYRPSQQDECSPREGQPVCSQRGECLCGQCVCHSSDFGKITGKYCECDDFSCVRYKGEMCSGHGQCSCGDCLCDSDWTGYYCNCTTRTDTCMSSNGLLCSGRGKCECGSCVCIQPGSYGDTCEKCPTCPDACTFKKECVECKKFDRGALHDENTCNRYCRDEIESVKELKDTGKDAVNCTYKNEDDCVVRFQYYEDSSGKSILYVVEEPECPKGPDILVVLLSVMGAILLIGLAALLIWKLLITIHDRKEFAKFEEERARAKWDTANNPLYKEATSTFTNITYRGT

| inhibition at 10 µM (10^-5 M) | inhibition at 1 µM (10^-6 M) | GPIIb/IIIa Fibrinogen Binding Inhibitory Activity (10^-5 M) | GPIIb/IIIa Fibrinogen Binding Inhibitory Activity (10^-6 M) | Compound |
| --- | --- | --- | --- | --- |
| 70.9% | 33% | – | – | CCn1cc(C(=O)O)c(=O)c2cc(F)c(N3CCN(Cc4ccccn4)CC3)cc21 [Compound 4] |
| 79.3% | 53.1% | – | – | O=C(O)c1cn(CCF)c2c(F)c(N3CCN4CCCC4C3)c(F)cc2c1=O (stereo not drawn) [Compound 8] |
| 69.5% | 43.9% | – | – | O=C(O)c1cn(CCF)c2c(F)c(N3CCn4ccnc4C3)c(F)cc2c1=O [Compound 9] |
| 60.4% | 43.2% | – | – | CN1CCN(c2c(F)cc3c(=O)c(C(=O)O)cn(C4CN(C)C4)c3c2F)CC1 [Compound 16] |
| 47.3% | 17.1% | – | – | CN1CCN(c2c(F)cc3c(=O)c(C(=O)O)cn(C4CC4)c3c2F)CC1 [Compound 17] |
| 42.6% | 30.5% | – | – | O=C(O)c1cn(C2CC2)c2c(F)c(N3CCn4ccnc4C3)c(F)cc2c1=O [Compound 18] |
| 49.7% | 7% | – | – | O=C(O)c1cn(C2CC2)c2c(F)c(SC3CCNCC3)c(F)cc2c1=O [Compound 19] |
| 69.9% | 31.3% | – | – | CN(C)CCN(C)c1nc2c(cc1F)c(=O)c(C(=O)O)cn2C1CC1 [Compound 21] |
| 72.3% | 36.2% | – | – | CCNCC1CCN(c2c(F)cc3c(=O)c(C(=O)O)cn(C4CC4)c3c2F)C1 (stereo not drawn) [Compound 23] |
| 94.1% | 71.4% | – | – | CN1CCN(C(=O)OC2CCN(c3c(F)cc4c(=O)c(C(=O)O)cn(C5CC5)c4c3F)C2)CC1 (stereo not drawn) [Compound 26] |
| 95.8% | 73.3% | – | – | CN(C)Cc1cn2c(n1)CN(c1c(F)cc3c(=O)c(C(=O)O)cn(C4CC4)c3c1F)CC2 [Compound 28, 1-Cyclopropyl-6,8-difluoro-7-(2-dimethylaminomethyl-5,6,7,8-tetrahydroimidazo[1,2-a]pyrazin-7-yl)-1,4-dihydro-4-oxoquinoline-3-carboxylic acid] |
| 68.7% | 38.4% | – | – | Cc1cnc2n1CCN(c1c(F)cc3c(=O)c(C(=O)O)cn(C4CC4)c3c1F)C2 [Compound 29] |
| 54.8% | 24.2% | – | – | O=C(O)c1cn(C2CC2)c2c(F)c(N3CCn4cc(CN5CCOCC5)nc4C3)c(F)cc2c1=O [Compound 30] |
| 73% | 39.3% | – | – | O=C(O)c1cn(C2CC2)c2c(F)c(N3CCN4CCC[C@@H]4C3)c(F)cc2c1=O [Compound 31] |
| 71.2% | 39.5% | – | – | O=C(O)c1cn(C2CC2)c2cc(N3CCN4CCC[C@H]4C3)c(F)cc2c1=O [Compound 32] |

The remaining lines, values behind:

| Compound | inhibition at 10 µM (10^-5 M) | inhibition at 1 µM (10^-6 M) | GPIIb/IIIa Fibrinogen Binding Inhibitory Activity (10^-5 M) | GPIIb/IIIa Fibrinogen Binding Inhibitory Activity (10^-6 M) |
| --- | --- | --- | --- | --- |
| CN1CCN(c2c(F)cc3c(=O)c(C(=O)O)cn(C)c3c2F)CC1 [Compound 1] | 70.7% | 48.6% | – | – |
| Cn1cc(C(=O)O)c(=O)c2cc(F)c(N3Cc4ccccc4C(N)C3)c(F)c21 (stereo not drawn) [Compound 2] | 72.4% | 48.4% | – | – |
| CCn1cc(C(=O)O)c(=O)c2cc(F)c(N3CCN(c4ccncc4)CC3)cc21 [Compound 3, 1-Ethyl-6-fluoro-7-[4-(4-pyridyl)piperazin-1-yl]-1,4-dihydro-4-oxoquinoline-3-carboxylic acid] | 82.2% | 57.1% | – | – |
| CCn1cc(C(=O)O)c(=O)c2cc(F)c(SC3CCN(C)CC3)cc21 [Compound 5] | 60.3% | 26% | – | – |
| CCn1cc(C(=O)O)c(=O)c2cc(F)c(N3CCN4CCCC4C3)c(F)c21 (stereo not drawn) [Compound 6] | 83.3% | 39.3% | – | – |
| CN1CCN(c2c(F)cc3c(=O)c(C(=O)O)cn(CCF)c3c2F)CC1 [Compound 7] | 91% | 62.1% | – | – |
| O=C(O)c1cn(CCO)c2c(F)c(N3CCn4ccnc4C3)c(F)cc2c1=O [Compound 10, 1-(2-Hydroxyethyl)-6,8-difluoro-7-(5,6,7,8-tetrahydroimidazo[1,2-a]pyrazin-7-yl)-1,4-dihydro-4-oxoquinoline-3-carboxylic acid] | 91.3% | 72.9% | – | – |
| NC(=O)OCCn1cc(C(=O)O)c(=O)c2cc(F)c(N3CCNCC3)c(F)c21 [Compound 11, 1-(2-Carbamoyloxyethyl)-6,8-difluoro-7-(1-piperazinyl)1,4-dihydro-4-oxoquinoline-3-carboxylic acid] | 96.8% | 84.3% | – | – |
| CN(C)CCn1cc(C(=O)O)c(=O)c2cc(F)c(N3CCNCC3)cc21 [Compound 12] | 79.1% | 65.1% | – | – |
| CN(C)CCn1cc(C(=O)O)c(=O)c2cc(F)c(N3CCN(C)CC3)cc21 [Compound 13] | 70.5% | 54.7% | – | – |
| O=C(O)CCn1cc(C(=O)O)c(=O)c2cc(F)c(N3CCNCC3)c(F)c21 [Compound 14] | – | 56.1% | – | – |
| CC(=O)N1CC(n2cc(C(=O)O)c(=O)c3cc(F)c(N4CCN(C)CC4)c(F)c32)C1 [Compound 15] | 60.5% | 33.9% | – | – |
| CNCCN(C)c1nc2c(cc1F)c(=O)c(C(=O)O)cn2C1CC1 [Compound 20] | 59.4% | 12% | – | – |
| O=C(O)c1cn(C2CC2)c2c(F)c(N3CCNCC3)c(F)cc2c1=O [Compound 22] | 72.7% | 39.8% | – | – |
| CCN1CCCC1CNc1c(F)cc2c(=O)c(C(=O)O)cn(C3CC3)c2c1F (stereo not drawn) [Compound 24] | 50% | 24.9% | – | – |
| CN(C)CCOC1CCN(c2c(F)cc3c(=O)c(C(=O)O)cn(C4CC4)c3c2F)C1 (stereo not drawn) [Compound 25] | 87.8% | 67.7% | – | – |
| CCNCc1cn2c(n1)CN(c1c(F)cc3c(=O)c(C(=O)O)cn(C4CC4)c3c1F)CC2 [Compound 27] | 78.4% | 42.6% | – | – |
| O=C(O)c1cn(C2CC2)c2c(F)c(N3CCN4CCC[C@@H]4C3)c(F)cc2c1=O [Compound 33] | – | – | 68.3% | 33.6% |
| O=C(O)c1cn(C2CC2)c2c(F)c(N3CCc4ccccc4C3)c(F)cc2c1=O [Compound 34] | 77% | 49.4% | – | – |
| NC1CN(c2c(F)cc3c(=O)c(C(=O)O)cn(C4CC4)c3c2F)Cc2ccccc21 (stereo not drawn) [Compound 35] | 51.8% | 21.5% | – | – |
| O=C(O)c1cn(C2CC2)c2c(F)c(N3Cc4ccccc4C(CO)C3)c(F)cc2c1=O (stereo not drawn) [Compound 36] | 56% | 36.3% | – | – |
| NCC1CN(c2c(F)cc3c(=O)c(C(=O)O)cn(C4CC4)c3c2F)Cc2ccccc21 (stereo not drawn) [Compound 37] | 60.1% | 32.5% | – | – |
| NC1CCCN(c2c(F)cc3c(=O)c(C(=O)O)cn(C4CC4)c3c2F)C1 (stereo not drawn) [Compound 38] | 50.8% | 31.9% | – | – |
